The target of assay [1] is T1, Progesterone receptor (Oryctolagus cuniculus, UniProt P06186).
T1 sequence (P06186 whole entry): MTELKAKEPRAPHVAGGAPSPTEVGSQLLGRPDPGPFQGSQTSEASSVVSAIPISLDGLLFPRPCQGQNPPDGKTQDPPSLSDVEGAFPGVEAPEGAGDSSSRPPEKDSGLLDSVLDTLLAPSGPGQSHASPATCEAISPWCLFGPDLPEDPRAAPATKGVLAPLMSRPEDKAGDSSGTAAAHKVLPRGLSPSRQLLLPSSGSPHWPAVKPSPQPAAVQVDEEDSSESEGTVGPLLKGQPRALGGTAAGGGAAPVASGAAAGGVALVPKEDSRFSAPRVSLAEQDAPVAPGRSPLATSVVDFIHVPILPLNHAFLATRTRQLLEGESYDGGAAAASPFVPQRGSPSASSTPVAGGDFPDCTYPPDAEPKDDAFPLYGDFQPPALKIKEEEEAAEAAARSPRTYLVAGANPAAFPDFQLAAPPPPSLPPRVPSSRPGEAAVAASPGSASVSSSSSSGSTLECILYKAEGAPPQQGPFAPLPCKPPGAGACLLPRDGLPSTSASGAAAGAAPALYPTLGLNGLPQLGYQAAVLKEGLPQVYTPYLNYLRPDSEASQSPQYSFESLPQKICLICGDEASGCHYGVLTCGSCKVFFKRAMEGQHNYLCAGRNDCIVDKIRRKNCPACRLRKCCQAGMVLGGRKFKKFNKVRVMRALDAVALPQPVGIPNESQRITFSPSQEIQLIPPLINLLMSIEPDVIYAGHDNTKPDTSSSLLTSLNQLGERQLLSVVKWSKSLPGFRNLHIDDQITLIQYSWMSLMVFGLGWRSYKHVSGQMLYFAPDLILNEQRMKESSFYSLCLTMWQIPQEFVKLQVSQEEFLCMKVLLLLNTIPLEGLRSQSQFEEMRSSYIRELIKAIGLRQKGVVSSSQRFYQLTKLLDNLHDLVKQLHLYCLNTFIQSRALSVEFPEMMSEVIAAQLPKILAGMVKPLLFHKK
As to the kind of experiment: Binding affinity determined by ability to displace [3H]R5020 radioligand using uterine progesterone receptor obtained from estrogen-primed rabbit.

The subject of assay [2] is T47D. As to the kind of experiment: Agonistic activity in T47D human breast carcinoma cell proliferation assay; Not active. It counts as functional, cell-based.
Assay [3] deals with T47D. As to the kind of experiment: Agonistic activity in T47D human breast carcinoma cell proliferation assay. The class given is functional.
Assay [4] has as its target T1, Progesterone receptor. The assay is described as follows: Displacement of [3H]R5020 from uterine progesterone receptor of estrogen-primed rabbits; Not active. Background: Displacement assays read how much labelled ligand stays bound in the presence of the test substance.
Assay [5] has as its system T47D. As to the kind of experiment: Agonistic activity in T47D human breast carcinoma cell proliferation assay; Not active up to 10 uM. The class given is functional, cell-based.
The target in assay [6] is T1, Progesterone receptor. As to the kind of experiment: Displacement of [3H]R5020 from uterine progesterone receptor of estrogen-primed rabbits; Not active up to 10 uM.

One may read the IC50 as the concentration at which inhibition is half-maximal.

Calls of active or inactive are those of the source. No cut-off for these calls is given here.

Consider `CC(C)(C)c1ccc(CC2CCCc3c(C=O)nn(-c4ccc(F)cc4)c32)cc1` (centres undefined), for which the half-maximal inhibitory concentration (IC50) at Progesterone receptor [1] is 1 µM.
In the case of `O=S(=O)(N/N=C/c1nn(-c2ccc(F)cc2)c2c1CCCC2Cc1cccc2ccccc12)c1ccccc1` (centres undefined), the IC50 at Progesterone receptor [1] was above 10 µM. Further, in the assay with T47D [2], the SC200 result was “inactive”.
The matching figures for `CCCCOC(=O)c1ccc(-n2nc(C=O)c3c2C(Cc2cccc4ccccc24)CCC3)cc1` (centres undefined): 0.851 µM and “inactive”.
For `CN/N=C/c1nn(-c2ccc(F)cc2)c2c1CCCC2Cc1cccc2ccccc12` (centres undefined), in that order: 0.049 µM and “inactive”.
Consider `CC(C)c1ccc(CC2CCCc3c(C=O)nn(-c4ccc(F)cc4)c32)cc1` (centres undefined), for which the IC50 on Progesterone receptor [1] worked out at 2.19 µM.
Take `CCCCCCCCOC(=O)c1ccc(-n2nc(C=O)c3c2C(Cc2cccc4ccccc24)CCC3)cc1` (centres undefined): at Progesterone receptor [1], the half-maximal inhibitory concentration (IC50) was above 10 µM. In the assay on T47D [2], the SC200 result is “inactive”.
For `CCN(CC)Cc1nn(-c2ccc(F)cc2)c2c1CCCC2Cc1cccc2ccccc12` (centres undefined), on Progesterone receptor [1], the IC50 was 1.38 µM.
On the same count and under the same terms, the result for `COc1ccc(CC2CCCc3c(C=O)nn(-c4ccc(F)cc4)c32)cc1` (centres undefined) reads 0.163 µM.
Turning to `O=Cc1nn(-c2ccc(Cl)cc2)c2c1CCCC2Cc1cccc2ccccc12` (centres undefined), the half-maximal inhibitory concentration (IC50) at Progesterone receptor [1] was 0.009 µM. The SC200 result in the assay on T47D [2] was “inactive”.
The matching figures for `CCOC(=O)OCc1nn(-c2ccc(F)cc2)c2c1CCCC2Cc1cccc2ccccc12` (centres undefined): 0.09 µM and “inactive”.
`O=C(NCc1ccccc1)c1nn(-c2ccc(F)cc2)c2c1CCCC2Cc1cccc2ccccc12` (centres undefined) displayed an IC50 on Progesterone receptor [1] above 10 µM.
In turn, `O=Cc1nn(-c2ccc(F)cc2)c2c1CCCC2Cc1ccccc1` (centres undefined) displayed a half-inhibitory concentration (IC50) at Progesterone receptor [1] of 0.003 µM. This molecule returned an SC200 in the assay on T47D [3] of 22 nM.
`CC(=O)OCc1nn(-c2ccc(F)cc2)c2c1CCCC2Cc1cccc2ccccc12` (centres undefined): the IC50 on Progesterone receptor [1] was 0.073 µM. Also, in the assay with T47D [2], the SC200 entry is “inactive”.
In the case of `CCC(O)c1nn(-c2ccc(F)cc2)c2c1CCCC2Cc1cccc2ccccc12` (centres undefined), the IC50 on Progesterone receptor [1] came to 0.69 µM.
Turning to `O=C(OCc1nn(-c2ccc(F)cc2)c2c1CCCC2Cc1cccc2ccccc12)c1ccccc1` (centres undefined), the IC50 on Progesterone receptor [1] turned out to be 0.182 µM. For the same molecule, the SC200 result in the assay with T47D [2] is “inactive”.
The matching figures for `O=Cc1nn(-c2ccc(F)cc2)c2c1CCCC2Cc1ccc(Cl)cc1` (centres undefined): 0.0119 µM and “inactive”.
At Progesterone receptor [1], `O=Cc1nn(-c2ccc(F)cc2)c2c1CCCC2Cc1ccc(F)c(F)c1` (centres undefined) registered an IC50 of 0.002 µM. The molecule also showed an SC200 in the assay with T47D [3] of 81 nM.
The matching figures for `O=Cc1nn(-c2ccc(F)cc2)c2c1CCCC2Cc1ccc(F)cc1` (centres undefined): 0.0065 µM and 27 nM.
On Progesterone receptor [1], `CC(O)c1nn(-c2ccc(F)cc2)c2c1CCCC2Cc1cccc2ccccc12` (centres undefined) returned an IC50 of 0.236 µM.
Turning to `O=Cc1nn(-c2ccc(O)cc2)c2c1CCCC2Cc1cccc2ccccc12` (centres undefined), the IC50 result on Progesterone receptor [4] is recorded as “Not Active”.
On Progesterone receptor [1], `O=C(N/N=C/c1nn(-c2ccc(F)cc2)c2c1CCCC2Cc1cccc2ccccc12)c1ccccc1` (centres undefined) had an IC50 above 10 µM. In the assay with T47D [3], the SC200 turned out to be 2265 nM.
Molecule `CC(=O)c1nn(-c2ccc(F)cc2)c2c1CCCC2Cc1cccc2ccccc12` (centres undefined) had an IC50 at Progesterone receptor [1] of 1.76 µM.
Take `O=Cc1nn(-c2ccc(F)cc2)c2c1CCCC2Cc1cccc2ccccc12` (centres undefined): the IC50 at Progesterone receptor [1] was determined as 0.0032 µM. Besides, in the assay on T47D [3], the SC200 is on record as 105 nM.
Regarding `N#Cc1nn(-c2ccc(F)cc2)c2c1CCCC2Cc1cccc2ccccc12` (centres undefined), at Progesterone receptor [1], the IC50 is 0.041 µM. For the same molecule, the SC200 entry in the assay on T47D [2] was “inactive”.
With `OCc1nn(-c2ccc(F)cc2)c2c1CCCC2Cc1cccc2ccccc12` (centres undefined), the IC50 at Progesterone receptor [1] was 0.052 µM. In addition, in the assay on T47D [5], the SC200 result was “inactive”.
`CCCCCCCC(=O)OCc1nn(-c2ccc(F)cc2)c2c1CCCC2Cc1cccc2ccccc12` (centres undefined) displayed a half-maximal inhibitory concentration (IC50) on Progesterone receptor [1] of 4.01 µM. Further, in the assay on T47D [2], the SC200 result was “inactive”.
The matching figures for `CN(C)/N=C/c1nn(-c2ccc(F)cc2)c2c1CCCC2Cc1cccc2ccccc12` (centres undefined): 0.547 µM and “inactive”.
At Progesterone receptor [1], `O=Cc1nn(-c2cccc(Cl)c2)c2c1CCCC2Cc1cccc2ccccc12` (centres undefined) gave an IC50 of 0.069 µM.
For the molecule `COc1ccc(-n2nc(C=O)c3c2C(Cc2cccc4ccccc24)CCC3)cc1` (centres undefined), the IC50 on Progesterone receptor [1] stood at 0.0127 µM. In addition, the SC200 result with T47D [2] was “inactive”.
In turn, `COc1cccc(CC2CCCc3c(C=O)nn(-c4ccc(F)cc4)c32)c1` (centres undefined) gave an IC50 at Progesterone receptor [1] of 0.0168 µM. The molecule also showed an SC200 in the assay on T47D [3] of 417 nM.
As for `CCC(=O)c1nn(-c2ccc(F)cc2)c2c1CCCC2Cc1cccc2ccccc12` (centres undefined), the half-maximal inhibitory concentration (IC50) on Progesterone receptor [1] was 1 µM.
`C=Cc1nn(-c2ccc(F)cc2)c2c1CCCC2Cc1cccc2ccccc12` (centres undefined): the 50% inhibitory concentration (IC50) on Progesterone receptor [1] came to 0.147 µM. The SC200 result in the assay with T47D [2] is “inactive”.
Turning to `Fc1ccc(-n2nc(C3OCCO3)c3c2C(Cc2cccc4ccccc24)CCC3)cc1` (centres undefined), the half-inhibitory concentration (IC50) at Progesterone receptor [1] turned out to be 0.097 µM.
On the same count and under the same terms, the result for `O/N=C/c1nn(-c2ccc(F)cc2)c2c1CCCC2Cc1cccc2ccccc12` (centres undefined) reads 0.628 µM.
Molecule `Cc1ccc(CC2CCCc3c(C=O)nn(-c4ccc(F)cc4)c32)cc1` (centres undefined) registered an IC50 on Progesterone receptor [1] of 0.0077 µM. Also, in the assay with T47D [3], the SC200 amounted to 275 nM.
Take `O=Cc1nn(-c2ccc(F)cc2)c2c1CCCC2Cc1ccccc1Cl` (centres undefined): on Progesterone receptor [1], the IC50 was 0.0105 µM. The same molecule came in with an SC200 with T47D [3] of 100 nM.
The matching figures for `CC(=O)OC(OC(C)=O)c1nn(-c2ccc(F)cc2)c2c1CCCC2Cc1cccc2ccccc12` (centres undefined): 0.0053 µM and 72 nM.
The molecule `CCN(CC)C(=O)c1nn(-c2ccc(F)cc2)c2c1CCCC2Cc1cccc2ccccc12` (centres undefined) gave a half-inhibitory concentration (IC50) at Progesterone receptor [1] of 3 µM.
Consider `O=Cc1nn(-c2ccccc2)c2c1CCCC2Cc1cccc2ccccc12` (centres undefined), for which the IC50 at Progesterone receptor [1] came to 0.006 µM. In addition, in the assay on T47D [3], the SC200 was 56 nM.
As for `COc1ccc(CC2CCCc3c(C=O)nn(-c4ccc(F)cc4)c32)cc1OC` (centres undefined), the IC50 at Progesterone receptor [1] was 1.89 µM.
Same read-out and setting: with `COC(=O)Nc1nn(-c2ccc(F)cc2)c2c1CCCC2Cc1cccc2ccccc12` (centres undefined) the figure was 1.57 µM; with `CC(=O)N/N=C/c1nn(-c2ccc(F)cc2)c2c1CCCC2Cc1cccc2ccccc12` (centres undefined), above 10 µM; with `Fc1ccc(-n2nc(CNCc3ccccc3)c3c2C(Cc2cccc4ccccc24)CCC3)cc1` (centres undefined), 1.38 µM.
For `O=Cc1nn(-c2ccc(F)cc2)c2c1CCCC2Cc1ccc(-c2ccccc2)cc1` (centres undefined), the IC50 at Progesterone receptor [1] stood at 10 µM.
As to `O=Cc1nn(-c2ccc(F)cc2)c2c1CCCC2Cc1ccc2ccccc2c1` (centres undefined), the IC50 at Progesterone receptor [1] was found to be 0.0564 µM. The SC200 result in the assay with T47D [2] is “inactive”.
Molecule `Fc1ccc(-n2nc(/C=N/c3ccccc3)c3c2C(Cc2cccc4ccccc24)CCC3)cc1` (centres undefined) showed an IC50 at Progesterone receptor [1] of 0.0023 µM. This molecule displayed an SC200 in the assay on T47D [3] of 185 nM.
For `COC(=O)c1ccc(-n2nc(C=O)c3c2C(Cc2cccc4ccccc24)CCC3)cc1` (centres undefined), at Progesterone receptor [6], the IC50 result is “Not Active”.
